Reference: patent US12370193B2, “Method of inhibiting TREM-1” (UNIVERSITY OF FLORIDA RESEARCH FOUNDATION, INCORPORATED, priority 2019, dated 2025)

Assays:
TREM-1 [1] = test: TREM-1 surface expression by FACS in LPS-stimulated RAW264.7 cells; type: cell-based, mouse; conditions: 50 hr incubation
Method: (§1) FIG. 2B are graphs showing TREM-1 gene expression by q-PCR. […] All experiments were performed with 3 biological replicates and the median value of TREM-1 fluorescence was represented by the graph on the bottom.
Flow cytometry and antibodies: For the analysis of macrophage activation, RAW264.7 cells (American Type Culture Collection) were pre-incubated with 5 μM 1903 for 18 h then stimulated with 1 μg/mL LPS (Escherichia coli 0127:B8, Sigma-Aldrich (St. Louis, MO)) for 6 h. RAW264.7 cells were stained with APC conjugated anti-TREM-1 antibody (eBioscience). Cell sorting was performed using LSRII (BD Bioscience).

RAW264.7 cells = test: LXR target, cytokine and SENP gene expression in LPS-stimulated RAW264.7 cells; type: cell-based, mouse
Method: FIGS. 3A-3D: Comparison with LXR agonist. […] FIGS. 3C and 3D show log 2 fold change of SENP3 expression in RAW264.7 cells mRNAseq and q-PCR.
(§2) Quantitative RT-PCR: Total RNA was extracted from EL4 or RAW264.7 cells using RNeasy Plus Micro Kit (Qiagen) and the RNA was reverse transcribed using the ABI reverse transcription kit (Applied Biosystems/Thermo Fisher Scientific, Waltham MA). Quantitative PCR was performed with a 7900HT Fast Real Time PCR System (Applied Biosystems) using SYBR green (Roche).
(§3) mRNA sequencing analysis: RAW264.7 cells RNA extraction protocol for RNA seq was derived from Qiagen Kit-74106. Total RNA was quantified using the Qubit 2.0 Fluorometer (Invitrogen, Carlsbad, CA) and run on the Agilent 2100 Bioanalyzer (Agilent Technologies, Santa Clara, CA) for quality assessment. RNA samples of good quality with RNA Integrity Number (RIN)>8.0 were further processed. A RNase-free working environment was maintained and RNase-free tips, Eppendorf tubes and plates were utilized for the subsequent steps. Messenger RNA was selectively isolated from total RNA (300 ng input) using poly-T oligos attached to magnetic beads and converted to sequence-ready libraries using the TruSeq stranded mRNA sample prep protocol (Cat. #: RS-122-2101, Illumina, San Diego, CA). The final libraries were validated on the bioanalyzer DNA chips and qPCR quantified using primers that recognize the illumina adaptors. The libraries were then pooled at equimolar ratios, quantified using qPCR and loaded onto the NextSeq 500 flow cell at 1.8 pM final concentration. They were sequenced using the high-output, paired-end, 75-bp chemistry. Demultiplexed and quality filtered raw reads (fastq) generated from the NextSeq 500 were trimmed (adaptor sequences) using Flexbar 2.4 and aligned to the mouse reference database (mm9) using TopHat version 2.0.9 (Trapnell et al., 2009). HTseq-count version 0.6.1 was used to generate gene counts and differential gene expression analysis was performed using Deseq2 (Anders and Huber, 2010).

TREM-1 [2] = test: TREM-1 gene expression in LPS-stimulated RAW264.7 cells (RNA sequencing, qPCR); type: cell-based, mouse
Method: as §1, §2, §3

LXRα LBD = biological target: T1, LXRα LBD (Homo sapiens, UniProt Q13133); test: Differential HDX-MS of LXRα LBD; type: binding; conditions: 1:10 molar excess of ligand
T1 construct: 10 μM of the apo protein (LXRα LBD and PPARγ LBD) was mixed with 1:10 molar excess of ligand
T1 sequence (Q13133 209-447 limits assumed): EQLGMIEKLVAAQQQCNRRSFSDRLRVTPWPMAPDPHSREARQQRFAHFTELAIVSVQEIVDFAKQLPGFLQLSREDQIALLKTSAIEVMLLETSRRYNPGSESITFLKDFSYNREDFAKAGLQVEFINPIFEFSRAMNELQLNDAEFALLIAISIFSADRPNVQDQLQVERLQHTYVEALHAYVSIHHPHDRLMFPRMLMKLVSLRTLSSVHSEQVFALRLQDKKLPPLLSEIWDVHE
Method: Hydrogen-deuterium exchange (HDX) detected by mass spectrometry (MS): Solution-phase amide HDX experiments were carried out with a fully automated system (CTC HTS PAL, LEAP Technologies, Carrboro, NC; housed inside a 4° C. cabinet) as described previously with the modifications described below^41.
Peptide Identification: Peptides were identified using tandem MS (MS/MS) experiments performed with a QExactive (ThermoFisher, San Jose, CA) over a 70 min gradient. Product ion spectra were acquired in a data-dependent mode and the five most abundant ions were selected for the product ion analysis per scan event. […]
Hydrogen/deuterium exchange (HDX) analysis: 10 μM of the apo protein (LXRα LBD and PPARγ LBD) was mixed with 1:10 molar excess of ligand and incubated for 2 hours at 4° C. for complex formation before subjecting them to HDX analysis. […] The intensity weighted mean m/z centroid value of each peptide envelope was calculated and subsequently converted into a percentage of deuterium incorporation. […] In the absence of a fully deuterated control, 100% deuterium incorporation was calculated theoretically, and corrections for back-exchange were made on the basis of an estimated 70% deuterium recovery and accounting for 80% final deuterium concentration in the sample (1:5 dilution in D2O HDX buffer). […]

## Cc1cc(CN2CCN(Cc3ccncc3)CC2)ccc1-c1ccc(C(O)(C(F)(F)F)C(F)(F)F)cc1 [SR1903, 1,1,1,3,3,3-hexafluoro-2-(2′-methyl-4′-((4-(pyridin-4-ylmethyl)piperazin-1-yl)methyl)-[1,1′-biphenyl]-4-yl)propan-2-ol]
TREM-1 [1]
  LPS-induced TREM1 cell surface expression: completely blocked
RAW264.7 cells; LPS-stimulated RAW264.7 cells
  expression of ACACA and FASN: increased
RAW264.7 cells; LPS-stimulated RAW264.7 cells, RNA sequencing
  expression of LXR target genes including ABCG1 and SCD: increased the expression
RAW264.7 cells; LPS-stimulated RAW264.7 cells, RNA sequencing, confirmed by qPCR
  expression of IL6 and IL33: robustly dampened
RAW264.7 cells; LPS-stimulated RAW cells, RNA sequencing
  expression of SENP2 and SENP6: repressed
RAW264.7 cells; LPS-stimulated RAW cells, RNA sequencing, qPCR
  expression of SENP3: increased the expression
TREM-1 [2]; 26 hr exposure
  LPS induction of TREM-1 gene expression (qPCR): significantly repressed
TREM-1 [2]; 50 hr treatment
  LPS induction of TREM-1 gene expression (qPCR): maintained repression
TREM-1 [2]; LPS-stimulated RAW264.7 cells, 10 μM compound vs DMSO-only
  TREM1 signaling expression (RNA sequencing): significantly suppressed
LXRα LBD
  deuterium exchange of LXRα LBD: makes a direct interaction with the receptor
